What all share (type): cell-based
Assay [1] concerns Hek293T. Kind of assay: Cytotoxicity in Hek293T (CellTiterGlo). The conditions noted are these: Homo sapiens, HEK-293T, 24 h after compound addition. The protocol:
(§1) For examination of cytotoxicity in these cancer cell lines the commercial available CellTiterGlo® Reagent (Promega, USA) was used according to the manufactor.
(§2) Compounds were applied to Hek293T (denoted (a)) or HepG2 (denoted (b)), cultured in Dulbecco's Modified Eagles Medium, supplemented with 10% fetal calf serum and 1% penicillin/streptomycin. Cells were grown in T75 flasks at 37° C., 5% CO2 and trypsinized when 60-80% confluent by adding 2 ml of 0.25% Trypsin-EDTA solution. Cells were then re-suspended into culture medium yielding approx. 4000 cells (a) or 4500 cells (b), suspended in 30 microl medium. 48 h after cell seeding, compounds were added to yield the desired final concentrations. 24 h after compound addition cytotoxicity was evaluated. For this purpose the media was removed and CellTiterGlo® was added according to the manufactors manual. In this assay the luciferase emission readout is directly correlated with the cellular amount of ATP, low luciferase emission thus is reflecting cytotoxicity of a compound.
On the technique in general: ATP-based viability assays read luminescence as a measure of living cells.

Assay [2] has as its system HepG2. Kind of assay: Cytotoxicity in HepG2 (CellTiterGlo). The conditions noted are these: Homo sapiens, 24 h after compound addition. The protocol:
as §1, §2

The test system of assay [3] is human fibroblasts (HS-68). Kind of assay: Cell line specific cytotoxicity, normal cells HS68 (nuclei count). The conditions noted are these: Hoechst labeled nuclei count, at least 72 hr. The protocol: For examination of cell line-specific cytotoxicity, compounds were applied to human colorectal cancer cells (HCT116, denoted (1); SW480, denoted (2); Dld-1, denoted (3)) and human fibroblasts (HS-68, denoted (4)), cultured in Mc Coy's ((1)) and Dulbecco's Modified Eagles Medium ((2)-(4)), supplemented with 10% ((1)-(3)) and 20% ((4)) fetal calf serum and 1% penicillin/streptomycin. Cells were grown in T75 flasks at 37° C., 5% CO2 and trypsinized when 60-80% confluent by adding 2 ml of 0.25% Trypsin-EDTA (ethylenediaminetetraacetic acid) solution. Cells were then re-suspended into culture medium yielding approx. 750 cells, suspended in 45 microl medium, were plated into each well of a black 384-well plate for fluorescence imaging experiments. […] Compound incubation was terminated by (a) fixation and (b) permeabilisation of cells, followed by (c) fluorescence labeling of cell nuclei for cytometric quantification or by immunocytochemistry for microscopic evaluation of cell morphology. […]
Cell line-specific cytotoxicity was quantified by counting the number of Hoechst labeled nuclei per well of a 384-well plate using a plate cytometer. Data obtained with the cytometer was analysed using standard data analysis software.
Identified hits were further evaluated by visual inspection of fluorescence micrographs obtained from imaging using a conventional fluorescence microscope.

From US9371333B2, “Chromene derivatives and their analoga as Wnt pathway antagonists” (Deutsches Krebsforschungszentrum, priority 2010, dated 2016) come the findings set out here.

A word on the IC50: it is the point on the concentration scale where inhibition reaches its midpoint.

A value given as a limit tells only on which side of the number the result lay.

`COc1cc(C2C(C#N)=C(N(C)C)Oc3cc4ccccc4cc32)cc(Br)c1OC` (stereo not drawn) [(31), 2-Dimethylamino-4-(3-bromo-4,5-dimethoxy-phenyl)-4H-benzo[g]chromene-3-carbonitrile]: the IC50 in assay [1] and in assay [2] was greater than 90 µM throughout.

`COc1cc(C2C(C#N)=C(N)Oc3cc4ccccc4cc32)cc(Br)c1OC` (stereo not drawn) [(30), 2-Amino-4-(3-bromo-4,5-dimethoxy-phenyl)-4H-benzo[g]chromene-3-carbonitrile]: the half-inhibitory concentration (IC50) in assay [1] and in assay [2] was greater than 90 µM in each case.

As for `N#CC1=C(N)Oc2cc3ccccc3cc2C1c1cc(F)c(N2CCCCC2)c(F)c1` (stereo not drawn) [(29), 2-amino-4-(3,5-difluoro-4-piperidin-1-yl-phenyl)-4H-benzo[g]chromene-3-carbonitrile], the IC50 in assay [1] was greater than 90 µM; in assay [2] it was 42.5 µM.

`C=CCOc1c(Br)cc(C2C(C(=O)OCC)=C(N)Oc3cc4c(cc32)OCO4)cc1OC` (stereo not drawn) [(42), 8-(4-Allyloxy-3-bromo-5-methoxy-phenyl)-6-amino-8H-[1,3]dioxolo[4,5-g]chromene-7-carboxylic acid ethyl ester]: the concentration for half-maximal inhibition (IC50) in assay [1] and in assay [2] was greater than 90 µM each time.

On to `N#CC1=C(N)Oc2cc3c(cc2C1c1cc(F)c(F)c(F)c1)OCO3` (stereo not drawn) [(39), 6-Amino-8-(3,4,5-trifluoro-phenyl)-8H-[1,3]dioxolo[4,5-g]chromene-7-carbonitrile], for which the IC50 in assay [1], in assay [2] and in assay [3] was greater than 90 µM in each case.

For the compound `COc1cc(C2C(C#N)=C(N)Oc3c2ccc2ccc(O)nc32)cc(Br)c1OC` (stereo not drawn) [(19), 3-Amino-1-(3-bromo-4,5-dimethoxy-phenyl)-6-hydroxy-1H-4-oxa-5-aza-phenanthrene-2-carbonitrile], the half-maximal inhibitory concentration (IC50) in assay [1] and in assay [2] was greater than 90 µM in each case.

Regarding `COc1cc(C2C(C#N)=C(N)Oc3c2ccc2ccc(C)nc32)cc(Br)c1OC` (stereo not drawn) [(16), 3-Amino-1-(3-bromo-4,5-dimethoxy-phenyl)-6-methyl-1H-4-oxa-5-aza-phenanthrene-2-carbonitrile], the half-maximal inhibitory concentration (IC50) in assay [1] and in assay [2] was greater than 90 µM in each case.

`COc1cc(C2C(C#N)=C(N)Oc3c2c(O)nc2ccccc32)cc(Br)c1OC` (stereo not drawn) [(17), 2-Amino-4-(3-bromo-4,5-dimethoxy-phenyl)-5-hydroxy-4H-pyrano[3,2-c]quinoline-3-carbonitrile]: the IC50 in assay [1], in assay [2] and in assay [3] was greater than 90 µM in each case.

Regarding `CCOC(=O)C1=C(N)Oc2c(ccc3ccccc23)C1c1cc(Br)c(OC)c(OC)c1` (stereo not drawn) [(6), 2-Amino-4-(3-bromo-4,5-dimethoxy-phenyl)-4H-benzo[h]chromene-3-carboxylic acid ethyl ester], the IC50 in assay [1] and in assay [2] was greater than 90 µM throughout.

Regarding `N#CC1=C(N)Oc2c(ccc3ccccc23)C1c1cc(F)c(F)c(F)c1` (stereo not drawn) [(7), 2-Amino-4-(3,4,5-trifluoro-phenyl)-4H-benzo[h]chromene-3-carbonitrile], the half-maximal inhibitory concentration (IC50) in assay [1] and in assay [2] was greater than 90 µM each time.

In the case of `COc1cc(C2C(C#N)=C(N)Oc3c2ccc2ccccc32)cc(Br)c1OC` (stereo not drawn) [(1), 2-Amino-4-(3-bromo-4,5-dimethoxy-phenyl)-4H-benzo[h]chromene-3-carbonitrile], the IC50 in assay [1] and in assay [2] was greater than 90 µM each time.

With `CCOC(=O)C1=C(N)Oc2cc3c(cc2C1c1cc(F)c(F)c(F)c1)OCO3` (stereo not drawn) [(40), 6-Amino-8-(3,4,5-trifluoro-phenyl)-8H-[1,3]dioxolo[4,5-g]chromene-7-carboxylic acid ethyl ester], the IC50 in assay [1] and in assay [2] was greater than 90 µM in each case.

Take `N#CC1=C(N)Oc2cc3ccccc3cc2C1c1cc(F)c(F)c(F)c1` (stereo not drawn) [(28), 2-amino-4-(3,4,5-trifluoro-phenyl)-4H-benzo[g]chromene-3-carbonitrile]: the 50% inhibitory concentration (IC50) in assay [1] was greater than 90 µM; in assay [2], 31.7 µM.

`COc1cc(C2C(C#N)=C(N)Oc3c2ccc2ccc(N)nc32)cc(Br)c1OC` (racemic) [(20), 3,6-Diamino-1-(3-bromo-4,5-dimethoxy-phenyl)-1H-4-oxa-5-aza-phenanthrene-2-carbonitrile]: the IC50 is greater than 90 µM in assay [1] and 37 µM in assay [2].

Turning to `C=CCOc1c(Br)cc(C2C(C#N)=C(N)Oc3cc4c(cc32)OCO4)cc1OC` (stereo not drawn) [(41), 8-(4-Allyloxy-3-bromo-5-methoxy-phenyl)-6-amino-8H-[1,3]dioxolo[4,5-g]chromene-7-carbonitrile], the IC50 in assay [1] and in assay [2] was greater than 90 µM each time.

As for `C=CCOc1c(Br)cc(C2C(C(=O)OCC)=C(N)Oc3c2ccc2ccccc32)cc1OC` (stereo not drawn) [(4), 4-(4-Allyloxy-3-bromo-5-methoxy-phenyl)-2-amino-4H-benzo[h]chromene-3-carboxylic acid ethyl ester], the IC50 in assay [1] and in assay [2] was greater than 90 µM each time.

Take `COc1cc(C2C(C#N)=C(N)Oc3c2ccc2ncccc32)cc(Br)c1OC` (stereo not drawn) [(18), 6-Amino-8-(3-bromo-4,5-dimethoxy-phenyl)-8H-5-oxa-1-aza-phenanthrene-7-carbonitrile]: the IC50 in assay [1] and in assay [2] was greater than 90 µM throughout.
